Reference: US5055396A, “Diagnostic methods and systems for quantifying APO AI” (Scripps Clinic and Research Foundation, priority 1987, dated 1991)

Experiments:
MAB AI-18 [1] = experiment: Solid-phase polypeptide competitive ELISA (AI90-105 coated wells, HRP-type labeled MAB AI-18); assay type: binding, mouse; settings: reference material: pool of about 20 normal plasmas; FIG. 8
Procedure: Six hundred microliters of 25 mM NH4 HCO3, pH 9.6, containing polypeptide AI90-105 at a concentration of 5 mg/ml were admixed with 119.4 ml of 0.1M NaHC)3, pH 9.0, to form a peptide coating solution. One hundred fifty microliters of the coating solution were admixed into the wells of flexible polyvinyl chloride microtiter plates (Nunc, Source). The wells were then maintained about 16-20 hours at 4 degrees C. to permit the peptide to adsorb onto (coat) the walls of the wells. After removing the peptide coating solution by shaking, the wells were washed once with 350 ul of rinsing buffer (PBS containing 1 gm/l BSA, 0.5 ml/l Tween 20, and 2 ul/l aprotinin). Excess protein binding sites were blocked by admixing 200 ul of blocking buffer (PBS containing 3% BSA) into each well, maintaining the wells for 1 hour at 20 degrees C., removing the blocking buffer by shaking, and then washing the wells 3 times as previously described. […]
Two hundred microliters of OPD substrate were then admixed into each well to form a developing-reaction admixture, which was maintained for 30 minutes at about 20 degrees C. Subsequently, 50 ul of 4N H2 SO4 were admixed into each well to stop the developing-reaction, and the resulting solution were assayed for absorbance at 490 nanometers using a microtiter plate reader (Dynatech). […]

MAB AI-18 [2] = experiment: Competitive RIA: inhibition of MAB AI-18 binding to solid-phase Apo AI/HDL by competitor antigen or peptide; parameters: species or system mouse; settings: competitive RIA; MAB AI-18 ascites 1:1.25×10^5; solid-phase Apo AI/HDL
Procedure: One hundred ul of PBS (0.15M NaCl, 0.01M NaPO4, pH 7.2) containing 10 ug/ml Apo AI/HDL were admixed to the wells of microtiter plates. The plates were maintained for 1 hour at 20 degrees C. on a rotating platform to allow the Apo AI/HDL to adhere to the wells and form solid supports. After aspirating excess liquid from the wells, 200 ul of block solution (3% BSA, 3% NGS in PBS) was admixed to each well, and the wells were maintained for 30 minutes at 20 degrees C. on a rotating platform. Subsequently, the blocking solution was removed by aspiration and the wells were washed 3 times with SPRIA buffer.
In control wells either competing antigen or antibody was replaced by PBS containing 3% BSA.
The immunoreaction admixtures were maintained about 16 hours at 4 degrees C. on a rotating platform to permit formation of solid-phase immunoreaction products. […] The labeling immunoreaction admixtures so formed were maintained for 4 hours at 4 degrees C. on a rotating platform.
[…] of serial 3 fold dilutions of each sample prepared in Table 3 were admixed as competitor in the RIA described in this Example.
Fifty microliters of the stock of 2 fold serial dilutions of the stock were used as competitor in the RIA described in this Example.

Sequence: LEEVKAKVQPYLDDFQ [AI90-105]
- immunoreactivity of MAB AI-18 for peptide compared with reference material (MAB AI-18 [1]): equivalent immunoreactivities
- Immunoreactivity (concentration of peptide competitor required to achieve a B/Bo value of 0.5) (MAB AI-18 [2]): 30 ug protein/ml
